{
  "source": "patent US6921531B2",
  "about": "“Administering bifunctional molecules containing a drug moiety and presenter protein ligand for therapy” (The Board of Trustees of the Leland Stanford Junior …, priority 1998, dated 2005)",
  "key": {"FKBP12": {"molecular_target": "T1, FKBP12 (Homo sapiens, UniProt P62942)", "T1 construct": "GST (N, cleaved yes); made in house", "T1 sequence (P62942 whole entry, species assumed)": "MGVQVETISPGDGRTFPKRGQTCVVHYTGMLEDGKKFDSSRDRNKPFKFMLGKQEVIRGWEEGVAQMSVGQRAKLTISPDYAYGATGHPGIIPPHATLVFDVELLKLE", "experiment": "Binding constants (Kd) for FKBP12, isothermal titration calorimetry", "description": "SLF was synthesized according to the procedures of Holt et al. [J. Am. Chem. Soc. 1993, 115, 9925]. SLF was coupled to the N-terminus of the resin-bound protected pYEEI peptide using PyBOP. The heterodimeric SLFpYEEI was deprotected and cleaved from the Novasyn TGT resin (Calbiochem-Novabiochem, San Diego, Ca.) using 25% trifluoroacetic acid and 2.5% triisopropyl silane in methylene chloride and the desired product was isolated using reverse phase HPLC. C. […] Recombinant FKBP12 was expressed as a GST fusion protein and bound to glutathione beads (Pharmacia). Using thrombin (Sigma) to cleave the GST-FKBP12 fusion protein at a thrombin cleavage site in the linker between GST and FKBP12, recombinant FKBP12 could be released from the glutathione beads where GST remained bound. FKBP52 was expressed with a tag of six histidine residues at its N-terminus (pET28c expression vector, Novagen). The recombinant protein was bound via the histidine tag to Ni^2+ NTA agarose beads (Qiagen), washed extensively and eluted with imidazole. […]\nSLFpYEEI and FKpYEEI are bifunctional molecules that can bind FKBP12 and FKBP52 as well as the Fyn SH2 domain (FIG. 2). The binding constants (Kd values) of the bifunctional molecules for the three proteins were measured using isothermal titration calorimetry (ITC) (Table 1)."}, "Fyn SH2 domain": {"molecular_target": "T2, Fyn SH2 domain (Homo sapiens, UniProt P06241)", "T2 construct": "The Fyn, Lck and PLC SH2 domains were expressed in bacteria as GST fusion proteins; GST (cleaved yes); made in house; host or cells: bacteria", "T2 sequence (P06241 149-246 limits assumed)": "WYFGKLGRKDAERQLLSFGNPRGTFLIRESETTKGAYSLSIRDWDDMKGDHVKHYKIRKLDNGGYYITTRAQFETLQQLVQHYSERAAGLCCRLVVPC", "experiment": "Competition binding assay of radioactive Fyn SH2 domain to pYEEI beads", "settings": "for Effect of FKBP12 on affinity for the Fyn SH2 domain: 1.0 µM ligand plus FKBP12 (0.25-4.0 µM or 2.0 µM)", "description": "The pYEEI peptide was coupled to Affi-Gel 10 beads (Biorad) via its amino-group. The Fyn, Lck and PLC SH2 domains were expressed in bacteria as GST fusion proteins. The linker between the GST protein and the SH2 domain contained a thrombin cleavage site and a protein kinase A (PKA) phosphorylation site. The fusion protein on glutathione beads was radioactively labeled at the PKA phosphorylation site using PKA (Sigma). After extensive washing of the beads, the radioactive SH2 domain was released by cleavage with thrombin (Sigma). In a typical binding assay, 7.5 L of a 1:1 peptide bead slurry were incubated with the radioactive SH2 domain (200 nM) for 2 hours in 100 L of binding buffer (20 mM Tris pH7.2; 150 mM NaCl). In order to separate the radioactive protein bound to the beads, the binding reaction was transfered into a PCR tube (USA Scientific Plastic), whose bottom had been punctured with a 26gauge needle. The PCR tube was placed in a 0.5 mL Eppendorf tube which in turn was placed in a regular 1.5 mL Eppendorf tube. The tubes were spun for 1 second at maximal speed in an Eppendorf centrifuge resulting in the separation of the beads remaining in the PCR tube and the supernatant, which was collected in the 0.5 ml Eppendorf tube. The beads were resuspended in […] PBS and the radioactivity was counted in a liquid scintillation counter after addition of 3 ml scintillation fluid. The radioactivity remaining in the 100 L supernatant was counted in the same way. It was determined that under the conditions described 65% Fyn, 25% PLC and 15%Lck SH2 domain were bound to the beads. By increasing the amount of beads, up to 80% Fyn, 40% PLC and 25% Lck could be bound. These amounts reflect the active fraction of SH2 domains in the different protein preparations.\nIn order to determine the relative affinity of the SH2 domains for FKpYEEI or SLFpYEEI alone and FKpYEEI or SLFpYEEI bound to FKBP12 and FKBP52, the following competition assay was used. Radioactive SH2 domains were incubated with pYEEI peptide beads and FKpYEEI or SLFpYEEI in the presence or absence of the respective FKBP proteins. FKpYEEI and FKpYEEI/FKBP as well as SLFpYEEI and SLFpYEEI/FKBP compete for binding of the SH2 domains with the peptide beads. The higher the affinity of the FKpYEEI or SLFpYEEI ligand in the supernatant, the less SH2 domain is bound to the peptide beads (FIG. 3).\nUsing the competition binding assay described above, FKpYEEI was added to peptide beads and the Fyn SH2 domain in the presence of increasing concentrations of FKBP52 (FIG. 4). In this assay, in 100 L binding reactions, radioactively labeled Fyn SH2 domain (200 nM) was incubated with 7.5 L of a 1:1 pYEEI bead slurry. No FKpYEEI, 1.0 M FKpYEEI or 1.0 M FKpYEEI plus increasing concentrations of FKBP52 (0.25-4.0 M) were added. The binding reactions were rotated at room temperature for 2 hours. The supernatant was separated from the beads by spinning the binding reactions in punctured PCR tubes for 1 sec in an Eppendorf centrifuge at maximal speed. The beads were resuspended in 100 1 PBS and the radioactivity bound to the beads was counted in a liquid scintillation vial for 30 sec. The radioactivity bound to the beads in the presence of only the Fyn SH2 domain was plotted as 100% of maximal Fyn SH2 domain binding to pYEEI beads. The radioactivity bound in the presence of FKpYEEI and FKBP52 was calculated as the percentage of maximal Fyn SH2 domain binding. Every binding reaction was done in triplicate. The data points reflect the average of the three binding reactions. The error bars indicate the standard error.\nIn this assay, in 100 L binding reactions, radioactively labeled Fyn SH2 domain (200 nM) was incubated with 7.5 L of a 1:1 pYEEI bead slurry. […] The binding reactions were rotated at room temperature for 2 hours, centrifuged and analysed as described above. […]"}},
  "note": "pKd: −log10 of the molar value. Entries after “also recorded” stand apart in the source; their conditions may differ.",
  "data": [
    {"smiles": "CC[C@H](C)[C@H](NC(=O)[C@H](CCC(=O)O)NC(=O)[C@H](CCC(=O)O)NC(=O)[C@H](Cc1ccc(OP(=O)(O)O)cc1)NC(=O)COc1cccc([C@@H](CCc2ccc(OC)c(OC)c2)OC(=O)[C@@H]2CCCCN2C(=O)C(=O)C(C)(C)CC)c1)C(=O)O", "note": "[SLFpYEEI]", "values": [
      {"measurement": "pKd", "setting": "FKBP12", "result": 7.21},
      {"measurement": "Effect of FKBP12 on affinity for the Fyn SH2 domain", "setting": "Fyn SH2 domain", "result": "reduced affinity for the Fyn SH2 domain; also recorded: reduced binding"},
      {"measurement": "Factor of affinity reduction for the Fyn SH2 domain in complex with FKBP12", "setting": "Fyn SH2 domain; IC50 with FKBP12 vs without", "result": "six"}
    ]},
    {"smiles": "CC[C@H](C)[C@H](NC(=O)[C@H](CCC(=O)O)NC(=O)[C@H](CCC(=O)O)NC(=O)[C@H](Cc1ccc(OP(=O)(O)O)cc1)NC(=O)OCC[C@@H]1/C=C(\\C)C[C@H](C)C[C@H](OC)[C@H]2O[C@@](O)(C(=O)C(=O)N3CCCC[C@H]3C(=O)O[C@H](/C(C)=C/[C@@H]3CC[C@@H](O)[C@H](OC)C3)[C@H](C)[C@@H](O)CC1=O)[C@H](C)C[C@@H]2OC)C(=O)O", "note": "[FKpYEEI]", "values": [
      {"measurement": "pKd", "setting": "FKBP12", "result": 7.35},
      {"measurement": "Effect of FKBP12 on affinity for the Fyn SH2 domain", "setting": "Fyn SH2 domain", "result": "does not enhance the binding affinity for the Fyn SH2 domain; also recorded: does not affect the affinity"},
      {"measurement": "Effect of FKBP52 on affinity for the Fyn SH2 domain", "setting": "Fyn SH2 domain; 1.0 M ligand plus FKBP52 0.25-4.0 M", "result": "higher affinity for the Fyn SH2 domain"},
      {"measurement": "Enhancement of affinity in the context of FKBP52 in respect to pYEEI", "setting": "Fyn SH2 domain; IC50 of FKpYEEI plus FKBP52 vs IC50 of pYEEI", "result": 4.4, "unit": "fold"},
      {"measurement": "Factor of affinity enhancement for the Fyn SH2 domain in complex with FKBP52", "setting": "Fyn SH2 domain; IC50 with FKBP52 vs without", "result": "three"}
    ]}
  ]
}
